Counter-ions that a name gives are not always drawn.
Legend:
NLRP3 = biological target: T1, NLRP3 (Homo sapiens, UniProt Q96P20); test: Detecting IC50 of NLRP3 inhibitor by using THP-1 cells (IL-1β secretion, CBA); format: cell-based; details: PMA/LPS/ATP, IL-1β in supernatant
T1 construct: This experiment utilized the human-derived monocyte cell line THP1; endogenous in cells; host or cells: THP-1 (human monocyte line, PMA-differentiated into macrophages)
Text: 1. Experimental principle: This experiment utilized the human-derived monocyte cell line THP1 to investigate the inhibitory activity (IC50) of NLRP3 inhibitor on cellular IL-1β secretion. PMA (12-O-tetradecanoylphorbol-13-acetate) was used to differentiate the monocyte cell line THP1 into mature macrophages, which were then stimulated using LPS (lipopolysaccharide), an agonist of the Toll-like receptor TLR4, to activate the transcriptional activity of the inflammasome NLRP3 and the expression of pro-IL-1β, a precursor of IL-1β. At this time, the inhibitor of NLRP3 was added, and then ATP (adenosine triphosphate) was added to further mature and activate NLRP3, and activate downstream caspase-1. Activated caspase-1 may enzymatically process pro-IL-1β into mature IL-1β that can be secreted.
(1) The density of THP1 cells was adjusted to 5×10^5 cells/mL, then PMA was added, and the final concentration was adjusted to 100 ng/mL. The cells were inoculated 200 μL/well into a 96-well flat-bottom plate, stimulated overnight (<16 hours if possible) at 37° C. and 5% CO2.
(2) The supernatant was discarded the next day, and then the cells were carefully washed twice with Dulbecco's phosphate-buffered saline (200 μL/time).
(3) The cells were stimulated with LPS at a final concentration of 100 ng/mL, added to a 96-well plate (200 μL/well), and cultured at 37° C. and 5% CO2 for 3 hours.
The cells were incubated for 1 hour in a 37° C., 5% CO2 incubator.
(5) ATP was added to each well with a final concentration of 5 mM, and cultured overnight (>18 hours) at 37° C. and 5% CO2.
(6) On the third day, 5 μL of the supernatant was taken, diluted 10-fold, and the content of IL-1β in the supernatant was detected by cytometric bead array (CBA).

[1] = In vivo pharmacokinetic evaluation in CD-1 mice; details: male, mouse, plasma, dose IV/PO 1/2 mg/kg; for half-life / clearance / Vd: 1 mg/kg; for half-life: IV, read-out: Half-life T1/2 (IV) (converted); for clearance: read-out: Clearance rate CL; for Vd: read-out: Tissue distribution Vdss; for AUC(0-t): PO, read-out: Area under drug-time curve AUC0-last PO; for bioavailability: read-out: Bioavailability F; for Cmax: read-out: Peak concentration Cmax
Method: Experimental Example 2: In Vivo Pharmacokinetic Evaluation of Compounds in CD-1 Mice
Experimental purpose: To test the in vivo pharmacokinetics of the compounds in CD-1 mice
CD-1 mice (male, 7 to 9 weeks old)
The rodent pharmacokinetic characteristics after intravenous injection and oral administration of the compounds were tested using a standard protocol. The candidate compound was prepared as a clear solution during the experiment and given to mice for single intravenous injection and oral administration. The vehicle for intravenous injection and oral administration was a mixed vehicle composed of 5% dimethyl sulfoxide and 95% 5% solutol. Four male CD-1 mice were used in this project. Two mice were administered intravenously (IV), and plasma samples were collected at 0 hours (before administration) and 0.0833, 0.25, 0.5, 1, 2, 4, 8, and 24 hours after administration. The other two mice were administered orally by gavage (PO), and plasma samples were collected at 0 hours (before administration) and 0.25, 0.5, 1, 2, 4, 8, and 24 hours after administration. The plasma concentration was quantitatively analyzed by LC-MS/MS analysis method, and the pharmacokinetic parameters were calculated, such as peak concentration (Cmax), clearance rate (CL), half-life (T1/2), […] (Vdss), area under drug-time curve (AUC0-last), bioavailability (F).

[2] = In vivo pharmacokinetic evaluation in SD rats; details: male, rat, plasma, dose IV/PO 1/2 mg/kg; for half-life / clearance / Vd: 1 mg/kg; for half-life: IV, read-out: Half-life T1/2 (IV) (converted); for clearance: read-out: Clearance rate CL; for Vd: read-out: Tissue distribution Vdss; for AUC(0-t): PO, read-out: Area under drug-time curve AUC0-last PO; for bioavailability: read-out: Bioavailability F; for Cmax: read-out: Peak concentration Cmax
Method: Experimental Example 3: In Vivo Pharmacokinetic Evaluation of Compounds in SD Rats
Experimental Purpose: To Test the In Vivo Pharmacokinetics of the Compounds in SD Rats
The rodent pharmacokinetic characteristics after intravenous injection and oral administration of the compounds were tested using a standard protocol. The candidate compound was prepared as a clear solution during the experiment and given to SD rats for single intravenous injection and oral administration. The vehicle for intravenous injection and oral administration was a mixed vehicle composed of 5% dimethyl sulfoxide and 95% 5% solutol. Four male SD rats were used in this project. Two SD rats were administered intravenously, and plasma samples were collected at 0.083, 0.25, 0.5, 1, 2, 4, 8, and 24 hours after administration. The other two SD rats were administered orally by gavage, and plasma samples were collected at 0.25, 0.5, 1, 2, 4, 8, and 24 hours after administration. The plasma concentration was quantitatively analyzed by LC-MS/MS analysis method, and the pharmacokinetic parameters were calculated, such as peak concentration (Cmaz), clearance rate (CL), half-life (T1/2), […] (Vdss), area under drug-time curve (AUC0-last), bioavailability (F).

T1 sequence (Q96P20 whole entry): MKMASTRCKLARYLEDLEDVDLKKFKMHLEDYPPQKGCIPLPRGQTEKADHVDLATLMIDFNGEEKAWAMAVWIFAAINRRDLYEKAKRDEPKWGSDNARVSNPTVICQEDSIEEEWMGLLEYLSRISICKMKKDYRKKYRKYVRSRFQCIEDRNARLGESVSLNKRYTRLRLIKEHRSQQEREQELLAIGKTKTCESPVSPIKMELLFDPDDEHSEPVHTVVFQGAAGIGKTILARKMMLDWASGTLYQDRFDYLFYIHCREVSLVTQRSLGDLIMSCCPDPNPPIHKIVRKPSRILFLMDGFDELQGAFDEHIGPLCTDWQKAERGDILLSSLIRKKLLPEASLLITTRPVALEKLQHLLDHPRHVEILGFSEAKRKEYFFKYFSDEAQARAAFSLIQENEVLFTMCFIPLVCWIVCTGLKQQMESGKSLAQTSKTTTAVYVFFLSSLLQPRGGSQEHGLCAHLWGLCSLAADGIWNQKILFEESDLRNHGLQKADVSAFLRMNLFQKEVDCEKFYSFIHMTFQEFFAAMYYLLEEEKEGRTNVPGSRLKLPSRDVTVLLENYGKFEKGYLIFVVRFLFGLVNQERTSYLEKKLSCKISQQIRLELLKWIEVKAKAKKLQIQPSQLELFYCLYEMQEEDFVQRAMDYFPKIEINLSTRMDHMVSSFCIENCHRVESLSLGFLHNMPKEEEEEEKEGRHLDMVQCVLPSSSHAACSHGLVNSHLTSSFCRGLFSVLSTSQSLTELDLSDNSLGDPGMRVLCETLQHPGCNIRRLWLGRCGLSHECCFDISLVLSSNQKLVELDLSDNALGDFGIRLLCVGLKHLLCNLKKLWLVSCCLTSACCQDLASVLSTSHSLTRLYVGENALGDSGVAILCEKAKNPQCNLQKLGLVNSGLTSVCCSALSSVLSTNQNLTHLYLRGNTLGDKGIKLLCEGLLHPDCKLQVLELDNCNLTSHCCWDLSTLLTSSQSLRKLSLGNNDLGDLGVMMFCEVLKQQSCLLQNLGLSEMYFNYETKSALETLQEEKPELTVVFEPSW

IC50 (NLRP3) [nM] | SMILES | further results
0.24 | Cc1cc(N[C@@H]2CCCN(C)C2)nnc1-c1ccc2c(c1O)CCC2 [Compound 2] | –
– | Cc1cc(N[C@@H]2CCCN(C)C2)nnc1-c1ccc(-c2ccc(F)cc2)cc1O [Compound 4] | half-life [1]: 25.7 h; clearance [1]: 0.795 mL/min/kg; Vd [1]: 1.72 L/kg; AUC(0-t) [1]: 54.3 µM·h; bioavailability [1]: 102%; Cmax [1]: 2900 nM
3.13 | Cc1cc(N[C@@H]2CCCN(CC(N)=O)C2)nnc1-c1ccc2c(c1O)CCC2 [Compound 12b] | –
31.1 | Cc1cc(N[C@@H]2CCCN(C3COC3)C2)nnc1-c1ccc(C2CCC2)cc1O [Compound 25] | –
0.52 | Cc1cc(N[C@@H]2CCCN(C3COC3)C2)nnc1-c1ccc2sccc2c1O [Compound 26] | half-life [2]: 1.1 h; clearance [2]: 12.3 mL/min/kg; Vd [2]: 0.789 L/kg; AUC(0-t) [2]: 7.4 µM·h; bioavailability [2]: 108%; Cmax [2]: 2910 nM; half-life [1]: 1.75 h; clearance [1]: 16.6 mL/min/kg; Vd [1]: 1.71 L/kg; AUC(0-t) [1]: 3.9 µM·h; bioavailability [1]: 78.8%; Cmax [1]: 2070 nM
41.5 | Cc1cc(N[C@@H]2CCCN(C3COC3)C2)nnc1-c1ccc(C2CCCC2)cc1O [Compound 27a] | –
25.5 | Cc1cc(N[C@@H]2CCCN(C3COC3)C2)nnc1-c1ccc(C2=CCCC2)cc1O [Compound 27b] | –
18.7 | Cc1cc(N[C@@H]2CCCN(C3COC3)C2)nnc1-c1ccc2ccccc2c1O [Compound 28] | –
3.39 | Cc1cc(N[C@@H]2CCCN(C3CCOC3)C2)nnc1-c1ccc(C2CC2)cc1O (stereo partly shown) [Compound 30] | –
2.09 | Cc1cc(N[C@@H]2CCCN(C3CCOCC3)C2)nnc1-c1ccc(C2CC2)cc1O [Compound 31] | –
0.09 | Cc1cc(N[C@@H]2CCCN(C(C)C)C2)nnc1-c1ccc2sccc2c1O [Compound 39] | half-life [2]: 2.19 h; clearance [2]: 15.3 mL/min/kg; Vd [2]: 2.63 L/kg; AUC(0-t) [2]: 4.53 µM·h; bioavailability [2]: 85.1%; Cmax [2]: 573 nM
0.19 | Cc1cc(N[C@@H]2CCCN(CC3CC3)C2)nnc1-c1ccc2sccc2c1O [Compound 40] | –
6.87 | Cc1cc(N[C@@H]2CCCN(C(=O)C3CC3)C2)nnc1-c1ccc2sccc2c1O [Compound 41] | –
0.882 | COC1CC(N2CCC[C@@H](Nc3cc(C)c(-c4ccc5sccc5c4O)nn3)C2)C1 (stereo partly shown) [Compound 49] | –
1.94 | Cc1cc(NC2CCCN(C3CC(O)C3)C2)nnc1-c1ccc2sccc2c1O (stereo not shown) [Compound 50] | –
0.142 | Cc1cc(N[C@@H]2CCCN(C(=O)CCN(C)C)C2)nnc1-c1ccc2sccc2c1O [Compound 51] | –

IC50 (NLRP3) [nM] | SMILES | further results
0.274 | Cc1cc(N[C@@H]2CCCN(C3CCOC3)C2)nnc1-c1ccc2sccc2c1O (stereo partly shown) [Formate of compound 42] | half-life [2]: 1.72 h; clearance [2]: 6.08 mL/min/kg; Vd [2]: 0.837 L/kg; AUC(0-t) [2]: 9.15 µM·h; bioavailability [2]: 71.2%; Cmax [2]: 2100 nM
0.078 | Cc1cc(N[C@@H]2CCCN(C)C2)nnc1-c1ccc2ccsc2c1O [Formate of compound 45] | –
0.289 | Cc1cc(N[C@@H]2CCCN(C3CCOCC3)C2)nnc1-c1ccc2sccc2c1O [Formate of compound 46] | –
0.69 | Cc1cc(N[C@@H]2CCCN(CC(C)(C)O)C2)nnc1-c1ccc2sccc2c1O [Formate of compound 47] | –
0.76 | Cc1cc(N[C@@H]2CCCN(C3CCC3)C2)nnc1-c1ccc2c(c1O)CCC2 [Hydrochloride of compound 19] | –
1.76 | Cc1cc2c(O)c(-c3nnc(N[C@@H]4CCCN(C)C4)cc3C)ccc2s1 [Hydrochloride of compound 43] | –
0.076 | Cc1cc(N[C@@H]2CCCN(C)C2)nnc1-c1ccc2sc(F)cc2c1O [Hydrochloride of compound 44a] | –
4.19 | Cc1cc(N[C@@H]2CCCN(C)C2)nnc1-c1ccc2sc(F)c(F)c2c1O [Hydrochloride of compound 44b] | –
0.85 | Cc1cc2c(O)c(-c3nnc(NCCN(C)C)cc3C)ccc2s1 [Hydrochloride of compound 58] | –
21.1 | Cc1cc(N[C@H]2CCCC[C@@H]2O)nnc1-c1ccc2sccc2c1O [Hydrochloride of compound 64] | –
6.07 | Cc1cc(Nc2cccnc2)nnc1-c1ccc2sccc2c1O [Hydrochloride of compound 65] | –
8.18 | Cc1cc2c(O)c(-c3nnc(N[C@H]4COC[C@@H]4O)cc3C)ccc2s1 [Hydrochloride of compound 66] | –
16.6 | Cc1cc2c(O)c(-c3nnc(N[C@@H]4CCCC[C@H]4O)cc3C)ccc2s1 [Hydrochloride of compound 67] | –
0.318 | Cc1c(N[C@@H]2CCCN(C)C2)nnc(-c2ccc3sccc3c2O)c1C [Hydrochloride of compound 72] | –
3.21 | Cc1c(N[C@@H]2CCCC[C@H]2O)nnc(-c2ccc3sccc3c2O)c1C [Hydrochloride of compound 73] | –
19.4 | CN1CCC[C@@H](Nc2ccc(-c3ccc4sccc4c3O)nn2)C1 [Hydrochloride of compound 74] | –

— US20240166610A1, “SUBSTITUTED PYRIDAZINE PHENOL DERIVATIVES” (MEDSHINE DISCOVERY INC., priority 2021, published 2024)
